Results as given in patent EP3925956B1, “1H-INDAZOLE-3-CARBOXAMIDE DERIVATIVES AND RELATED COMPOUNDS AS FACTOR D INHIBITORS FOR TREATING DISEASES CHARACTERIZED BY ABERRANT COMPLEMENT SYSTEM ACTIVITY, SUCH AS E.G. IMMUNOLOGICAL DISORDERS” (BioCryst Pharmaceuticals, Inc., priority 2016, dated 2017).

Target: Factor D (Homo sapiens, UniProt P00746)
Assay: Factor D esterolytic assay

Chain of Factor D (P00746 26-253): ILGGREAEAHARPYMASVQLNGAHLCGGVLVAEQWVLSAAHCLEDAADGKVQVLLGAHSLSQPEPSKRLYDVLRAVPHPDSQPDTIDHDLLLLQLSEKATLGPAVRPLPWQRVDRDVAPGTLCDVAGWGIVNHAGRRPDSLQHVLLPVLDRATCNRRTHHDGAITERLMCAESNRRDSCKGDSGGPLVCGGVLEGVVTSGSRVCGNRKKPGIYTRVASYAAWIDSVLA

Structure (SMILES) | IC50 [µM]
COC(=O)c1ccc2c(c1)c(C(C)=O)nn2CC(=O)N(CC(=O)NCc1cccc(Cl)c1F)C1CC1 [227a, methyl 3-acetyl-1-(2-((2-((3-chloro-2-fluorobenzyl)amino)-2-oxoethyl)(cyclopropyl)amino)-2-oxoethyl)-1H-indazole-5-carboxylate] | < 1
CC(O)c1nn(CC(=O)N(CC(=O)NCc2cccc(Cl)c2F)C2CC2)c2ccc(NC(=O)N3CCCC(F)(F)C3)cc12 (stereo not shown) [289a, N-(1-(2-((2-((3-chloro-2-fluorobenzyl)amino)-2-oxoethyl)(cyclopropyl)amino)-2-oxoethyl)-3-(1-hydroxyethyl)-1H-indazol-5-yl)-3,3-difluoropiperidine-1-carboxamide] | 1 to 10
CC(C)(C)CC(=O)Nc1ccc2c(C(N)=O)nn(CC(=O)N(CC(=O)NCc3cccc(Cl)c3F)C3CC3)c2c1 [322b, 1-(2-((2-((3-chloro-2-fluorobenzyl)amino)-2-oxoethyl)(cyclopropyl)amino)-2-oxoethyl)-6-(3,3-dimethylbutanamido)-1H-indazole-3-carboxamide] | < 1
NC(=O)c1nn(CC(=O)N(CC(=O)NCc2cccc(Cl)c2F)C2CC2)c2ncc(N)cc12 [326b, 5-amino-1-(2-((2-((3-chloro-2-fluorobenzyl)amino)-2-oxoethyl)(cyclopropyl)amino)-2-oxoethyl)-1H-pyrazolo[3,4-b]pyridine-3-carboxamide] | 1 to 10
C[C@H](CO)N(CC(=O)NCc1cccc(Cl)c1F)C(=O)Cn1nc(C(N)=O)c2cc(NC(=O)OC(C)(C)C)ccc21 [345e, (R)-tert-butyl (3-carbamoyl-1-(2-((2-((3-chloro-2-fluorobenzyl)amino)-2-oxoethyl)(1-hydroxypropan-2-yl)amino)-2-oxoethyl)-1H-indazol-5-yl)carbamate] | < 1
NC(=O)c1nn(CC(=O)N(CC(=O)NCc2cccc(Cl)c2F)[C@H]2C[C@H](N)C2)c2ccc([N+](=O)[O-])cc12 [347b, 1-(2-(((trans)-3-aminocyclobutyl)(2-((3-chloro-2-fluorobenzyl)amino)-2-oxoethyl)amino)-2-oxoethyl)-5-nitro-1H-indazole-3-carboxamide] | < 1
NC(=O)c1nn(CC(=O)N(CC(=O)Nc2cccc(Br)n2)[C@H]2C[C@H](N)C2)c2ccccc12 [349d, 1-(2-(((trans)-3-aminocyclobutyl)(2-((6-bromopyridin-2-yl)amino)-2-oxoethyl)amino)-2-oxoethyl)-1H-indazole-3-carboxamide] | < 1
NC(=O)c1nn(CC(=O)N(CC(=O)Nc2cncc(Br)n2)[C@H]2C[C@H](N)C2)c2ccccc12 [350c, 1-(2-(((trans)-3-aminocyclobutyl)(2-((6-bromopyrazin-2-yl)amino)-2-oxoethyl)amino)-2-oxoethyl)-1H-indazole-3-carboxamide] | < 1
NC(=O)c1nn(CC(=O)N(CC(=O)NCc2cccc(Cl)c2F)[C@H]2C[C@H](N)C2)c2ccc(N)cc12 [351b, 5-amino-1-(2-(((trans)-3-aminocyclobutyl)(2-((3-chloro-2-fluorobenzyl)amino)-2-oxoethyl)amino)-2-oxoethyl)-1H-indazole-3-carboxamide] | < 1
CN(C)CC[C@H](N)c1cccc(Cl)c1F [358f, (S)-1-(3-chloro-2-fluorophenyl)-N3,N3-dimethylpropane-1,3-diamine] | 1 to 10
